Source: the NIST ThermoML archive (doi:10.1016/j.jct.2009.05.006)

How the values were obtained:
[1] = xn = mol fraction of the nth substance listed; details: 298.15 K, 101 kPa, Liquid, Vibrating tube method
[2] = excess molar enthalpy (molar enthalpy of mixing); xn = mol fraction of the nth substance listed; details: 298.15 K, 101 kPa, Liquid, Calvet calorimetry

BrCCCCBr [1,4-dibromobutane] + CCCCOC(=O)CC
Details | excess molar enthalpy [kcal/mol] | mass density [kg/m3]
[1], x1 = 0.0993 | – | 1702.4
[1], x1 = 0.1484 | – | 1647.38
[1], x1 = 0.2006 | – | 1590.44
[1], x1 = 0.2485 | – | 1539.57
[1], x1 = 0.307 | – | 1478.88
[1], x1 = 0.3593 | – | 1426.19
[1], x1 = 0.4138 | – | 1372.46
[1], x1 = 0.4767 | – | 1312.32
[1], x1 = 0.5324 | – | 1260.38
[1], x1 = 0.5968 | – | 1201.95
[1], x1 = 0.6549 | – | 1150.66
[1], x1 = 0.721 | – | 1093.83
[1], x1 = 0.787 | – | 1038.79
[1], x1 = 0.8544 | – | 984.01
[1], x1 = 0.9302 | – | 924.33
[2], x2 = 0.0509 | 0.00574 | –
[2], x2 = 0.1183 | 0.00621 | –
[2], x2 = 0.196 | 0.00287 | –
[2], x2 = 0.275 | -0.00239 | –
[2], x2 = 0.3518 | -0.00765 | –
[2], x2 = 0.4473 | -0.0131 | –
[2], x2 = 0.4843 | -0.0151 | –
[2], x2 = 0.5517 | -0.0163 | –
[2], x2 = 0.6323 | -0.017 | –
[2], x2 = 0.7319 | -0.016 | –
[2], x2 = 0.8302 | -0.0124 | –
[2], x2 = 0.9193 | -0.0086 | –

BrCCCCCBr [1,5-dibromopentane] + CCCCOC(C)=O
[2]
Details | excess molar enthalpy [kcal/mol]
x2 = 0.0669 | 0.00669
x2 = 0.1499 | 0.00956
x2 = 0.2436 | 0.01
x2 = 0.3318 | 0.00837
x2 = 0.4096 | 0.00454
x2 = 0.4762 | 0.000239
x2 = 0.5331 | -0.00478
x2 = 0.5566 | -0.00765
x2 = 0.5827 | -0.00932
x2 = 0.6168 | -0.0124
x2 = 0.6927 | -0.0151
x2 = 0.7844 | -0.0141
x2 = 0.8533 | -0.0105
x2 = 0.9377 | -0.00574

BrCCCCBr [1,4-dibromobutane] + CCCCOC(C)=O
Details | excess molar enthalpy [kcal/mol] | mass density [kg/m3]
[1], x1 = 0.06 | – | 1754.15
[1], x1 = 0.1131 | – | 1699.34
[1], x1 = 0.1633 | – | 1648.18
[1], x1 = 0.2229 | – | 1588.24
[1], x1 = 0.2748 | – | 1536.73
[1], x1 = 0.3886 | – | 1426
[1], x1 = 0.4426 | – | 1374.38
[1], x1 = 0.5 | – | 1320.28
[1], x1 = 0.6216 | – | 1207.87
[1], x1 = 0.6806 | – | 1154.38
[1], x1 = 0.8076 | – | 1041.44
[1], x1 = 0.8633 | – | 992.97
[1], x1 = 0.9298 | – | 935.67
[2], x2 = 0.0576 | 0.00335 | –
[2], x2 = 0.135 | 0.00574 | –
[2], x2 = 0.2211 | 0.00621 | –
[2], x2 = 0.3056 | 0.00359 | –
[2], x2 = 0.3729 | -0.000956 | –
[2], x2 = 0.4291 | -0.00621 | –
[2], x2 = 0.4798 | -0.0124 | –
[2], x2 = 0.4866 | -0.0158 | –
[2], x2 = 0.5277 | -0.0186 | –
[2], x2 = 0.5406 | -0.021 | –
[2], x2 = 0.603 | -0.0234 | –
[2], x2 = 0.6715 | -0.0237 | –
[2], x2 = 0.7464 | -0.0222 | –
[2], x2 = 0.8416 | -0.0155 | –
[2], x2 = 0.9307 | -0.00717 | –

BrCCCCCCBr [1,6-dibromohexane] + CCCCOC=O
Details | excess molar enthalpy [kcal/mol] | mass density [kg/m3]
[1], x2 = 0.0793 | – | 1558.23
[1], x2 = 0.1555 | – | 1514.85
[1], x2 = 0.2238 | – | 1474.51
[1], x2 = 0.2952 | – | 1430.8
[1], x2 = 0.3567 | – | 1391.77
[1], x2 = 0.4201 | – | 1350.14
[1], x2 = 0.4813 | – | 1308.59
[1], x2 = 0.5983 | – | 1224.92
[1], x2 = 0.6603 | – | 1178.22
[1], x2 = 0.7628 | – | 1097.17
[1], x2 = 0.8097 | – | 1058.36
[1], x2 = 0.854 | – | 1020.74
[1], x2 = 0.9078 | – | 973.55
[2], x2 = 0.0858 | 0.0241 | –
[2], x2 = 0.1844 | 0.0413 | –
[2], x2 = 0.2879 | 0.0566 | –
[2], x2 = 0.3755 | 0.0655 | –
[2], x2 = 0.4521 | 0.0686 | –
[2], x2 = 0.5188 | 0.0674 | –
[2], x2 = 0.6009 | 0.0636 | –
[2], x2 = 0.6581 | 0.0583 | –
[2], x2 = 0.7307 | 0.0497 | –
[2], x2 = 0.8078 | 0.0375 | –
[2], x2 = 0.8827 | 0.0246 | –
[2], x2 = 0.9487 | 0.0134 | –

BrCCCCCBr [1,5-dibromopentane] + CCCCOC(=O)CC
[2]
Details | excess molar enthalpy [kcal/mol]
x2 = 0.0697 | 0.00741
x2 = 0.1544 | 0.012
x2 = 0.248 | 0.0124
x2 = 0.3363 | 0.00884
x2 = 0.4134 | 0.00263
x2 = 0.4801 | -0.00526
x2 = 0.4924 | -0.00884
x2 = 0.5371 | -0.0131
x2 = 0.5511 | -0.0165
x2 = 0.6257 | -0.0206
x2 = 0.7153 | -0.021
x2 = 0.8183 | -0.016
x2 = 0.9151 | -0.00884

BrCCCBr [1,3-dibromopropane] + CCCCOC(=O)CC
[2]
Details | excess molar enthalpy [kcal/mol]
x2 = 0.045 | 0.00765
x2 = 0.1122 | 0.0124
x2 = 0.1829 | 0.0129
x2 = 0.2541 | 0.00908
x2 = 0.3191 | 0.00215
x2 = 0.3797 | -0.00813
x2 = 0.4331 | -0.0151
x2 = 0.4438 | -0.017
x2 = 0.5107 | -0.0229
x2 = 0.5886 | -0.0261
x2 = 0.6793 | -0.0263
x2 = 0.7807 | -0.022
x2 = 0.8921 | -0.0131

CCCCOC(=O)CCC [butyl butanoate] + BrCCCCCBr
Details | excess molar enthalpy [kcal/mol] | mass density [kg/m3]
[1], x1 = 0.0517 | – | 1642.59
[1], x1 = 0.1033 | – | 1591.9
[1], x1 = 0.1521 | – | 1545.03
[1], x1 = 0.2029 | – | 1497.33
[1], x1 = 0.2545 | – | 1449.85
[1], x1 = 0.3101 | – | 1399.96
[1], x1 = 0.3663 | – | 1350.58
[1], x1 = 0.4214 | – | 1303.32
[1], x1 = 0.478 | – | 1255.87
[1], x1 = 0.6053 | – | 1153.05
[1], x1 = 0.6591 | – | 1111.13
[1], x1 = 0.7254 | – | 1060.71
[1], x1 = 0.7885 | – | 1013.92
[1], x1 = 0.8577 | – | 963.85
[1], x1 = 0.9262 | – | 915.51
[2], x1 = 0.0642 | 0.00645 | –
[2], x1 = 0.1447 | 0.0108 | –
[2], x1 = 0.2305 | 0.012 | –
[2], x1 = 0.3193 | 0.00956 | –
[2], x1 = 0.3711 | 0.00621 | –
[2], x1 = 0.3957 | 0.0043 | –
[2], x1 = 0.4159 | 0.000956 | –
[2], x1 = 0.4621 | -0.00359 | –
[2], x1 = 0.4668 | -0.00478 | –
[2], x1 = 0.5278 | -0.00932 | –
[2], x1 = 0.6041 | -0.0115 | –
[2], x1 = 0.6965 | -0.0129 | –
[2], x1 = 0.806 | -0.0115 | –
[2], x1 = 0.9138 | -0.00693 | –

BrCCCCBr [1,4-dibromobutane] + CCCCOC=O
Details | excess molar enthalpy [kcal/mol] | mass density [kg/m3]
[1], x2 = 0.0702 | – | 1756.08
[1], x2 = 0.1221 | – | 1708.91
[1], x2 = 0.1836 | – | 1652.89
[1], x2 = 0.241 | – | 1600.45
[1], x2 = 0.3018 | – | 1544.61
[1], x2 = 0.4249 | – | 1431.07
[1], x2 = 0.4765 | – | 1383.26
[1], x2 = 0.5374 | – | 1326.55
[1], x2 = 0.6529 | – | 1218.52
[1], x2 = 0.7677 | – | 1110.31
[1], x2 = 0.8248 | – | 1056.19
[1], x2 = 0.8824 | – | 1001.42
[1], x2 = 0.9353 | – | 950.88
[2], x2 = 0.0646 | 0.0177 | –
[2], x2 = 0.1478 | 0.0315 | –
[2], x2 = 0.2392 | 0.0423 | –
[2], x2 = 0.3291 | 0.0488 | –
[2], x2 = 0.4058 | 0.0504 | –
[2], x2 = 0.4726 | 0.0488 | –
[2], x2 = 0.5295 | 0.0466 | –
[2], x2 = 0.5817 | 0.0435 | –
[2], x2 = 0.6425 | 0.0387 | –
[2], x2 = 0.7078 | 0.033 | –
[2], x2 = 0.7787 | 0.0253 | –
[2], x2 = 0.8648 | 0.0165 | –
[2], x2 = 0.9404 | 0.00669 | –
